One series deals with mouse reticulocytes. Particulars: increased dose levels in male Balb/c mice. As for the experimental part: Male Balb/c mice were then injected with 0.1 ml of a compound solution via the tail vein. At least 3 mice were injected per dose level. Saline only was used as a negative control. For a positive control, cyclophosphamide (cycloPP) was administered at a dose of 30 mg/kg. In the experimental group, the injections were repeated once per day for four days. In the positive control group, the sample was administered only once, on day three. On day 5, several microliters of blood were withdrawn from each subject and smeared on a glass slide. Cells were fixed in absolute methanol and stored in a slide rack.
For analysis, cells were stained with acridine orange and visualized under a fluorescence microscope by counting: (i) the number of reticulocytes per 5000 erythrocytes; and (ii) the number of micronucleated reticulocytes per 1000 reticulocytes. Reticulocytes were distinguished by their red fluorescence due to the presence of RNA. Micronuclei were distinguished by their green fluorescence due to the presence of DNA. The percentage of reticulocytes (%PCE) was then calculated. A decrease in the frequency of […] in the percentage of reticulocytes, is an indication of bone marrow toxicity. The percentage of reticulocytes with micronuclei (%PCE with MN) was also calculated. An increase in %PCE with MN is a measure of clastogenicity.
After initial results were determined, the experiment was repeated using increased dose levels, until: (i) Micronucleus formation was seen; or (ii) Bone marrow toxicity was observed; or (iii) The lethal dose was reached; or (iv) A dose of 5 g/kg was administered.

A further series deals with HIV-1. The note with it: 1 minute irradiation, starting titer approximately 5.4 logs (Table 11).
For series [1], the system named is R17 bacteriophage. Kind of series: R17 bacteriophage inactivation at constant concentration, varying doses of UV light. It counts as cell-based. Particulars: 1.0-3.0 J/cm^2, FIGS. 11-17. As for the experimental part: Compounds of the present invention were also tested at a constant concentration for varying doses of UV light. Three sets of 1.5 mL tubes were prepared containing 0.6mL aliquots of R17 in DMEM (prepared as described above). The compound tested was added at the desired concentration and the samples were vortexed. The samples were then irradiated at intervals of 1.0 J/cm^2, until 3.0 J/cm^2 was reached. Between each 1.0 J/cm^2 interval, 100 μL was removed from each sample and placed in the first corresponding dilution tube, then five sequential dilutions were performed for each compound tested, at all 3 irradiation doses, as described above in this example.
Then 50 μL of Hfr 3000 bacteria was added to each tube, 3 mL of top agar was added and the tube contents were vortexed The contents of each tube was poured into its own LB plate and the plates were incubated overnight at 37° C. Plaques were counted by visual inspection the following morning.

In the next series the test system is p-selectin (GMP140). Kind of series: GMP-140 (p-selectin) expression on platelets, flow cytometry with CD62. The note with it: 100 μM compound, 5 Joules/cm^2, 5 days storage; FIGS. 21C-24C. It counts as cell-based, human. The method, then:
To measure the effects of the present compounds and methods of decontamination on platelet function using these four indicators, four samples were prepared for each compound tested, two control samples and two containing compound. Three units of human platelets were obtained from the Sacramento Blood Center, Sacramento, Calif. These were each transferred under sterile conditions to 50 ml centrifuge tubes, then aliquots of each unit were transferred into a second set of 50 ml sterile centrifuge tubes. To each centrifuge tube containing platelet concentrate (PC), an aliquot of compound stock was added to reach a final concentration of 100 μM of compound. […] The samples were pipetted gently up and down to mix. Then aliquots (either 3 ml or 8 ml) of each sample was transferred to two sterile Teflon™ Medi-bags™ (American Fluoroseal Co., Silver Springs, Md.) (presently owned by The West Company, Lionville, Pa.). Samples were treated in one of two different sized bags, having either 3 ml or 8 ml capacity. […] For each compound tested, two control samples without compound were prepared by again removing aliquots of platelet concentrate (17 ml if using an 8 ml bag, […] if using a 3 ml bag) from the same one of the first set of 50 ml centrifuge tubes from which the compound sample was drawn, and dividing into Medibags, as before. One of each pair of Medibags containing a compound, and one of each pair of control Medibags, were illuminated for 5 Joules/cm^2 on the device described in Example 1, above. Then all experimental and control Medibags were placed on a platelet shaker for storage for 5 days. The same experiments were repeated several times to obtain more statistically meaningful data, as represented by “n”, the number of data points represented, in the graphs of FIGS. 21-24, discussed below.

The next series has as its system platelets. The experiment in a line: Platelet count, Sysmex cell counter. Particulars: 100 μM compound, 5 Joules/cm^2, Day 5; FIGS. 21A-24A. Format: cell-based, human. The method, then: Samples were diluted 1:3 in blood bank saline.
Series [2] is described as follows: HPLC retention time as rough estimate of hydrophobicity. Particulars: C-18 reversed phase, methanol/KH2PO4 gradient. It counts as physicochemical. As for the experimental part:
Adsorption data were then obtained by HPLC analysis on the test and control samples. Specifically, a 200 μl sample volume of PC was removed from each tube following the incubation period (special care being taken to ensure that no adsorbent particles were removed with the test samples). […] The addition of methanol lyses platelets and precipitates plasma proteins so that psoralen contained within the platelets is not excluded by the assay.
Since each of the psoralens were analyzed using the same type of BPLC assay, one can use the psoralens' relative retention times to rank them according to increasing hydrophobicity. […] Strong interactions with cells or plasma proteins could compete with adsorption, thereby interfering with resin binding.

The subject of series [3] is R17 bacteriophage. Kind of series: R17 bacteriophage inactivation assay, varying compound concentration. Format: cell-based. The note with it: 32 μM; starting titer approx. 7.5 logs; 1 minute irradiation. The method, then:
An r-17 bacteriophage assay was used in this example to predict pathogen inactivation efficiency and to determine nucleic acid binding of the photoreactive binding compounds of the present invention. In the r-17 assay, the bacteriophage was placed in a solution with each compound tested and was then irradiated. The ability of the phage to subsequently infect bacteria and inhibit their growth was measured. The bacteriophage was selected for its relatively accessible nucleic acid such that the culture growth inhibition would accurately reflect nucleic acid damage by the test compounds. The bacteriophage assay for nucleic acid binding to test compounds offers a safe and inexpensive procedure to identify compounds likely to display efficient pathogen inactivation.
The R17 was grown up in Hfr 3000 bacteria, approximate titer 5×10^11. (R17 and Hfr 3000 were obtained from American Tissue Culture Collection (ATCC), Washington, D.C.) The R17 phage stock was added to a solution of 15% fetal bovine serum in Dulbecco's Modified Eagles Medium (DMEM) to a final phage concentration of 10^9/mL. An aliquot (0.5 mL) was transferred to a 1.5 mL snap-top polyethylene tube. An aliquot (0.004-0.040 mL) of the test compound stock solution prepared in water, ethanol or dimethylsulfoxide at 0.80-8.0 mM was added to the tube. Compounds were tested at concentrations between 4 μM and 320 μM. […] The tubes were placed in a light device as described in EXAMPLE 1 and irradiated for between 1 and 10 minutes. Sterile 13 mL dilution tubes were prepared; each test compound required one tube with 0.4 mL of Luria broth (LB) and five tubes containing 0.5 mL of LB broth. To make the dilutions, a 0.100 mL aliquot of the irradiated solution of phage and test compound was added to the first dilution tube of 0.4 mL of media then 0.020 mL of this solution was added to the second tube of 0.5 mL medium (1:25). The second solution was then diluted serially (1:25) into the remaining tubes. To each diluted sample was added 0.050 mL of Hfr 3000 bacteria cultured overnight and 3 mL of molten LB top agar and the mixed materials were poured onto LB broth plates. After the top agar hardened, the plates were incubated at 37° C. overnight. The plaque forming units were then counted the following morning and the titer of the phage remaining after phototreatment was calculated based on the dilution factors.
The following controls were run: the “phage only” in which phage was not treated with test compound and not irradiated (listed as “starting titer” in the tables below); the “UV only” in which the phage was irradiated in the absence of test compound; and the “dark” control in which the phage/test compound solution was not irradiated before it was diluted and plated.

The test system of the next series is Pseudomonas. Kind of series: Bacterial inactivation, colony forming units. It counts as cell-based. The note with it: 16 μM; 5 J/cm^2 irradiation; starting titer 6.5 logs. The method, then:
The bacteria, a strain of Pseudomonas, was inoculated into LB with a sterile loop and grown overnight in a shaker at 37° C. Based on the approximation that one OD at 610 mn is equivalent to 5×10^8 colony forming units (cfu)/mL, a 1:10 dilution of the culture was measured on a spectrophotometer, (manufactured by Shimatsu). The bacterial culture was added to a solution of 15% fetal bovine serum in DMEM to a final bacteria concentration of approximately 10^6/mL. An aliquot (0.8 mL) was transferred to a 1.5 mL snap-top polyethylene tube. An aliquot (0.004-0.040 mL) of the test compound stock solution prepared in water, ethanol or dimethylsulfoxide at 0.80-8.0 mM was added to the tube. Compounds were tested at a concentration of 16 μM. The tubes were placed in a light device as described in EXAMPLE 1 and irradiated with 1.3 J/cm^2, 1.2 J/cm^2, and finally 2.5 J/cm^2, for a total of 5 J/cm^2. 150 μL were removed for testing after each pulse period. Sterile 13 mL dilution tubes were prepared; each test compound required one tube with 0.4 mL of LB broth and four tubes containing 0.5 mL of LB broth. […] The colony forming units were then counted the following morning and the titer of the phage remaining after phototreatment was calculated based on the dilution factors. […]

The test system of series [4] is Salmonella typhimurium tester strains. The experiment in a line: Ames Salmonella dark mutagenicity test, overall assessment. Format: cell-based. Particulars: two-fold or greater increase in revertants above background and dose dependence. As for the experimental part:
A brief description for each procedure is given here. […] TA97a, TA98, TA1537 and TA1538 are frameshift tester strains. TA100 and TA102 are base-substitution tester strains.
This served as the background controls.
For all experiments, the pre-incubation procedure was used.

Structures are written as SMILES. Read-outs that look alike come from different tables or passages of the source. Some results are limits rather than exact numbers.

Data on six compounds can be found in US6544727B1, “Methods and devices for the removal of psoralens from blood products” (Cerus Corporation, priority 1995, dated 2003).

Method for HIV-1: As in the R17 assay, small aliquots of the compounds listed in TABLES 10 and 11, below, at the concentrations listed in the table, were added to stock HIV-1 to a total of 0.5 mL. The stock HIV (10^5−10^7 plaque forming units/mL) was in DMEM15% FBS. […] Controls included HIV-1 stock only, HIV-1 plus UVA only, and HIV-1 plus the highest concentration of each psoralen tested, with no UVA. Post irradiation, all samples were store frozen at −70° C. until assayed for infectivity by a microtiter plaque assay. Aliquots for measurement of residual HIV infectivity in the samples treated with a compound of the present invention were withdrawn and cultured.
Residual HIV infectivity was assayed using an MT-2 infectivity assay. […] The assay medium was 85% DMEM (with a high glucose concentration) containing 100 μg of streptomycin, 100 U of penicillin, 50 μg of gentamicin, and 1 μg of amphotericin B per mL, 15% FBS and 2 μg of Polybrene (Sigma Chemical Co., St. Louis, Mo.) per mL. Test and control samples from the inactivation procedure were diluted in 50% assay medium and 50% normal human pooled plasma The samples were serially diluted directly in 96-well plates (Corning Glass Works, Corning, N.Y.). The plates were mixed on an oscillatory shaker for 30 seconds and incubated at 37° C. in a 5% CO2 atmosphere for 1 to 18 hours. […] After an additional 1 hour of incubation at 37° C. in 5% CO2, 0.075 mL of assay medium containing 1.6% SeaPlaque agarose (FMC Bioproducts, Rockland, Me.) and prewarmed to 38.5° C. was added to each well. The plates were kept at 37° C. for a few minutes until several plates had accumulated and then centrifuged in plate carriers at 600×g for 20 minutes in a centrifuge precooled to 10° C. In the centrifuge, cell monolayers formed prior to gelling of the agarose layer. The plates were incubated for 5 days at 37° C. in 5% CO2 and stained by the addition of 0.05 mL of 50 μg/mL propidium iodide (Sigma Chemical Co.) in phosphate-buffered saline (pH 7.4) to each well. After 24 to 48 hours, the red fluorescence-stained microplaques were visualized by placing the plates on an 8,000 μW/cm^2304 nm UV light box (Fotodyne, Inc., New Berlin, Wis.). The plaques were counted at a magnification of x20 to x25 through a stereomicroscope.

Regarding `Cc1cc(=O)oc2c(C)c3oc(CNCCCCN)c(C)c3cc12` [Compound 17, 5′-(6-amino-2-aza)hexyl-4,4′,8-trimethylpsoralen], in the series with mouse reticulocytes, the “bone marrow toxicity and micronucleus formation on dose escalation (in words)” value is given as “the acutely lethal dose was reached before there were any signs of bone marrow toxicity or micronucleus formation”. Moreover, the “HIV Log Kill” value stood at 1.2 log in the series with HIV-1 (16 μM), 2.9 log with HIV-1 (32 μM) and 3.4 log with HIV-1 (64 μM). The “R17 inactivation efficiency compared with AMT (in words)” value in the series with R17 bacteriophage [1] was “more efficient at inactivating R17 than was AMT”. Moreover, the “GMP-140 expression, treated sample (PCD) against day 5 untreated control (in words)” value in the series on p-selectin (GMP140) is listed as “little or no difference”. Further, the “platelet count, treated against controls (in words)” value in the series with platelets is given as “higher platelet count than samples treated with light alone”.

As for `CC[N+](CC)(CC)Cc1c(C)oc2c(C)c3oc(=O)cc(C)c3cc12` [Psoralen A, 4′-(triethylamino) methyl-4,5′,8-trimethylpsoralen], the “HPLC retention time (rough estimate of hydrophobicity)” value in [2] is reported as 7.8 min.

For `COc1c2occc2cc2ccc(=O)oc12` [Compound 8-MOP, 8-Methoxypsoralen, reference compound], the “R17 log kill (32 μM)” value in the series with R17 bacteriophage [3] was 0 log. Further, the “log kill of Pseudomonas” value with Pseudomonas came out at 1.9 logs. Further, the “mutagenic response in the Ames assay (in words)” value in series [4] is reported as “weak base-substitution mutagen in TA102 at 500 μg/plate”.

In the case of `Cc1oc2c(C)c3oc(=O)cc(C)c3cc2c1CNCCCCCN` [Compound 10, 4′-(7-amino-2-aza)heptyl-4,5′,8-trimethylpsoralen], the figures for the “HIV Log Kill” value in the series on HIV-1 (16 μM), with HIV-1 (32 μM) and in the series on HIV-1 (64 μM) were 2.0 log, over 3.5 log and over 3.5 log, respectively. In addition, the “R17 inactivation efficiency compared with AMT (in words)” value with R17 bacteriophage [1] is recorded as “more efficient at inactivating R17 than was AMT”.

As to `COc1c2occc2c(Br)c2ccc(=O)oc12` [Psoralen B, 5-bromo-8-methoxypsoralen], the “HPLC retention time (rough estimate of hydrophobicity)” value in series [2] is 20.0 min.

Turning to `Cc1oc2c(C)c3oc(=O)cc(C)c3cc2c1CNCCCNCCCN` [Compound 12, 4′-(9-amino-2,6-diaza)nonyl-4,5′,8-trimethylpsoralen], the “HIV Log Kill” value with HIV-1 (16 μM) is 0.4 log; with HIV-1 (32 μM), 0.8 log; with HIV-1 (64 μM), 1.3 log. The “R17 inactivation efficiency compared with AMT (in words)” value in the series on R17 bacteriophage [1] is reported as “more efficient at inactivating R17 than was AMT”.
